Among the data in patent US20260152527A1, “NOVEL MELANOCORTIN ANALOGS” (priority 2022, published 2026) are IC50 values, retold here.

Molecules are shown by their SMILES. Starred links: 1 amine or outer side, 2 acyl side, 3 side chain; linkers in the order of their positions; H or OH if unused. Positions of bridges follow the written chain, without caps; N, C: chain ends. Non-standard residues stand in square brackets, D forms with d. Residues, ends and D or L forms follow the SMILES beside them. Triazole bridges read from a SMILES are 1,4-linked. NMeW = CN[C@@H](Cc1c[nH]c2ccccc12)C(=O)O; Lys(N3) = [N-]=[N+]=NCCCC[C@H](N)C(=O)O; Phe(4-NH2) = Nc1ccc(C[C@H](N)C(=O)O)cc1; NMeR = CN[C@@H](CCCNC(=N)N)C(=O)O; hArg = N=C(N)NCCCC[C@H](N)C(=O)O; Suc = O=C(CCC(=O)[*:2])[*:1]; Nle = CCCC[C@H](N)C(=O)O; Pra = C#CC[C@H](N)C(=O)O; Dab = NCC[C@H](N)C(=O)O Some results are limits rather than exact numbers.

T2 sequence (P32245 whole entry): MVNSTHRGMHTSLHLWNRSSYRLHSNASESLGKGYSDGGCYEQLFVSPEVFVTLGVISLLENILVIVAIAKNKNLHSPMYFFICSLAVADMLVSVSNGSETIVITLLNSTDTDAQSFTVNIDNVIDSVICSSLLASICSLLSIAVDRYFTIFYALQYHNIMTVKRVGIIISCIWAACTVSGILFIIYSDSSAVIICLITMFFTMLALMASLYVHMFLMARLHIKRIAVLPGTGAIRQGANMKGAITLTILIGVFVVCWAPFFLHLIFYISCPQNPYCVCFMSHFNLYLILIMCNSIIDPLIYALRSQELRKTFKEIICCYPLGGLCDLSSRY

One assay deals with T1, human recombinant MC1R (Homo sapiens, UniProt Q01726).
T1 construct: host or cells: CHO-K1
T1 sequence (Q01726 whole entry): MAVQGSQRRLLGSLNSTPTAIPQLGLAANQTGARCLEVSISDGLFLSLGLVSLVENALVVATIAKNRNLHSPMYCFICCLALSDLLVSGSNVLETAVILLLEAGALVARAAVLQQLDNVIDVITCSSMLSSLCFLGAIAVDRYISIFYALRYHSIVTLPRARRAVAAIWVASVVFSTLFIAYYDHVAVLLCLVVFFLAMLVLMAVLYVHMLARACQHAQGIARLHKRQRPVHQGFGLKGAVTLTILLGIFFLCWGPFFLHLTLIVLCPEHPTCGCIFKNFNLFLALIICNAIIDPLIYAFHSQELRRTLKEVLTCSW
The assay is described as follows: cyclic AMP (cAMP) functional assay, MC1R stable cell line (CHO-K1).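 Note: cells with test compound for 60 min at room temperature in buffer containing IBMX, then cAMP quantified by Eu-cAMP tracer and ULight anti-cAMP detection.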 Type of assay: cell-based. As to conditions: cAMP functional assay.
Description: The cyclic AMP (cAMP) functional assay was performed on a human recombinant MC1R stable cell line (CHO-K1, GenScript). The cells were cultured at 37° C. and 5% CO2 with culture medium (90% Ham's F-12K (Kaighn's)+10% FBS+400 μg/mL G418). […] Then, 100 nL of compounds were transferred to the assay plate by the Echo machine. Cells were washed with PBS and then detached by incubation with 0.05% (w/v) Trypsin EDTA at 37° C. for 2 to 5 mins. Cells were collected with stimulation buffer (1×HBSS with 5 mM HEPES+0.2 mM IBMX+0.1% BSA) and 10 ul of cells (the density of 2,500 cells/well) solution was transferred to assay plate, centrifuged at 600 rpm for 3 min and then incubated with compounds at room temperature for 60 min. After that, 5 μL 4×Eu-cAMP tracer solution and 5 μL 4×ULight™-anti-cAMP solution was added into the cells, centrifuged at 600 rpm for 3 min and incubated for 60 min. The cAMP signal was detected with Envision® Multimode Plate Reader (PerkinElmer).
For the molecule `CSCC[C@H](NC(=O)[C@H](CO)NC(=O)[C@H](Cc1ccc(O)cc1)NC(=O)[C@H](CO)NC(C)=O)C(=O)N[C@@H](CCC(=O)O)C(=O)N[C@@H](Cc1c[nH]cn1)C(=O)N[C@@H](Cc1ccccc1)C(=O)N[C@@H](CCCNC(=N)N)C(=O)N[C@@H](Cc1c[nH]c2ccccc12)C(=O)NCC(=O)N[C@@H](CCCCN)C(=O)N1CCC[C@H]1C(N)=O` [KR-005], the IC50 came to 0.093 nM.

With `CSCC[C@H](NC(=O)[C@H](CO)NC(=O)[C@H](Cc1ccc(O)cc1)NC(=O)[C@H](CO)NC(C)=O)C(=O)N[C@@H](CCC(=O)O)C(=O)N[C@@H](Cc1c[nH]cn1)C(=O)N[C@@H](Cc1ccccc1)C(=O)N[C@@H](CCCNC(=N)N)C(=O)N[C@@H](Cc1c[nH]c2ccccc12)C(=O)NCC(=O)N[C@@H](CCCCN)C(N)=O` [KR-006], the half-inhibitory concentration (IC50) came out at 0.11 nM. The same measure, in the same setting: to `CSCC[C@H](NC(=O)[C@H](CO)NC(=O)[C@H](Cc1ccc(O)cc1)NC(=O)[C@H](CO)NC(C)=O)C(=O)N[C@@H](CCC(=O)O)C(=O)N[C@@H](Cc1c[nH]cn1)C(=O)N[C@@H](Cc1ccccc1)C(=O)N[C@@H](CCCNC(=N)N)C(=O)N(C)[C@@H](Cc1c[nH]c2ccccc12)C(=O)NCC(=O)N[C@@H](CCCCN)C(=O)N1CCC[C@H]1C(=O)N[C@H](C(N)=O)C(C)C` [KR-024] belongs 0.88 nM; to `CCCC[C@H](NC(C)=O)C(=O)N[C@H]1CSCc2cccc(c2)CSC[C@@H](C(=O)N[C@@H](Cc2c[nH]c3ccccc23)C(N)=O)NC(=O)[C@H](CCCNC(=N)N)NC(=O)[C@@H](Cc2ccccc2)NC(=O)[C@H](Cc2c[nH]cn2)NC1=O` [KR-032, Ac-Nle-cyc(Cys-His-DPhe-Arg-Cys)-Trp, L: m-xylene-NH2], 0.081 nM; to `CCCC[C@@H]1NC(=O)CSC[C@@H](C(N)=O)NC(=O)[C@H](CCCCN)NC(=O)CNC(=O)[C@H](Cc2c[nH]c3ccccc23)NC(=O)[C@H](CCCNC(=N)N)NC(=O)[C@H](Cc2ccccc2)NC(=O)[C@H](Cc2c[nH]cn2)NC(=O)[C@H](CCC(=O)O)NC1=O` [KR-036] ({CH2CO}-[Nle]EHFRWGKC-NH2; thioether N-9), 0.88 nM.

For the molecule `CCCC[C@H](NC(C)=O)C(=O)N[C@H]1CCCCn2cc(nn2)C[C@@H](C(=O)N[C@@H](CCCCN)C(N)=O)NC(=O)[C@H](Cc2c[nH]c3ccccc23)NC(=O)[C@H](CCCNC(=N)N)NC(=O)[C@@H](Cc2ccccc2)NC(=O)[C@H](Cc2c[nH]cn2)NC1=O` [KR-037, Ac-Nle-[Lys(N3)-His-DPhe-Arg-Trp-Pra]-Lys-NH2] (Ac-[Nle][Lys(N3)]H[dF]RW[Pra]K-NH2; triazole 2-7), the IC50 is 0.024 nM. In the case of `CCCC[C@H](NC(C)=O)C(=O)N[C@H]1CCNC(=O)CCC(=O)NCC[C@@H](C(N)=O)NC(=O)[C@H](Cc2c[nH]c3ccccc23)NC(=O)[C@H](CCCNC(=N)N)NC(=O)[C@@H](Cc2ccccc2)NC(=O)[C@H](Cc2c[nH]cn2)NC1=O` [KR-041, Ac-Nle-[Dab-His-DPhe-Arg-Trp-Dab] Linker: succinic acid-NH2] (Ac-[Nle][Dab]H[dF]RW[Dab]-NH2; linker 2-7 via Suc (inferred)), the half-maximal inhibitory concentration (IC50) worked out at 0.04 nM. Regarding `CCCC[C@H](NC(C)=O)C(=O)N[C@H]1CCn2cc(nn2)COCc2cn(nn2)CC[C@@H](C(N)=O)NC(=O)[C@H](Cc2c[nH]c3ccccc23)NC(=O)[C@H](CCCNC(=N)N)NC(=O)[C@@H](Cc2ccccc2)NC(=O)[C@H](Cc2c[nH]cn2)NC1=O` [KR-042, Ac-Nle-[Dab(N3)-His-DPhe-Arg-Trp-Dab(N3)] linkr: 3,3′-Oxybis[1-propyne]-NH2], the IC50 worked out at 0.16 nM.

`CCCC[C@H](NC(C)=O)C(=O)N[C@H]1CCCCn2cc(nn2)C[C@@H](C(N)=O)NC(=O)[C@H](Cc2c[nH]c3ccccc23)NC(=O)[C@H](CCCNC(=N)N)NC(=O)[C@@H](Cc2ccccc2)NC(=O)[C@H](Cc2ccc(N)cc2)NC1=O` [KR-047, Ac-Nle-[Lys(N3)-Phe(4-NH2)-DPhe-Arg-Trp-Pra]-NH2] (Ac-[Nle][Lys(N3)][Phe(4-NH2)][dF]RW[Pra]-NH2; triazole 2-7): the IC50 was over 50 nM. With `CCCC[C@H](NC(C)=O)C(=O)N[C@H]1CCCCn2cc(nn2)C[C@@H](C(N)=O)NC(=O)[C@H](Cc2c[nH]c3ccccc23)N(C)C(=O)[C@H](CCCNC(=N)N)N(C)C(=O)[C@@H](Cc2ccccc2)NC(=O)[C@H](Cc2c[nH]cn2)NC1=O` [KR-050, Ac-Nle-[Lys(N3)-His-DPhe-NMeArg-NMeTrp-Pra]-NH2] (Ac-[Nle][Lys(N3)]H[dF][NMeR][NMeW][Pra]-NH2; triazole 2-7), the IC50 was 0.081 nM.

`CCCC[C@H](NC(C)=O)C(=O)N[C@H]1CCCCn2cc(nn2)C[C@@H](C(=O)N[C@@H](CCCCN)C(N)=O)NC(=O)[C@H](Cc2c[nH]c3ccccc23)NC(=O)[C@H](CCCCNC(=N)N)NC(=O)[C@@H](Cc2ccccc2)NC(=O)[C@H](Cc2c[nH]cn2)NC1=O` [KR-054, Ac-Nle-[Lys(N3)-His-DPhe-HArg-Trp-Pra]-Lys-NH2] (Ac-[Nle][Lys(N3)]H[dF][hArg]W[Pra]K-NH2; triazole 2-7): the IC50 was determined as 0.093 nM.

Another assay concerns the target T2, human recombinant MC4R (Homo sapiens, UniProt P32245).
T2 construct: host or cells: CHO-K1/Gα15
Put plainly: Ca2+ signalling functional assay, MC4R stable cell line (CHO-K1/Gα15). Type of assay: cell-based. The following applies: calcium flux functional assay. (A change in cytosolic calcium serves as a functional read-out for many receptors and channels.)
Description: The Ca^2+ signalling functional assay was performed on a human recombinant MC4R stable cell line (CHO-K1/Gα15, GenScript). The cells were cultured at 37° C. and 5% CO2 with culture medium (90% Ham's F-12K (Kaighn's)+10% FBS+8 μg/mL Puromycin+100 μg/mL Hygromycin B). Cells were washed with PBS and then detached by incubation with 0.05% (w/v) Trypsin EDTA at 37° C. for 2-5 mins. Detached cells were suspended in Ham's F-12K (Kaighn's) (containing 10% FBS) and a 50 μL cell suspension was seeded into each well of a 384-well assay plate at a density of 15,000 cells/well. Cells were allowed to settle overnight at 37° C., 5% CO2. The next day, the assay plate was centrifuged and the media was replaced with dye (1×) in assay buffer (containing HBSS, HEPES 20 mM and probenecid 1 mM) and incubated for 1 h at 37° C. […] Then, 100 nL of compounds were transferred to the compound plate by the Echo machine. 30 μL assay buffer was added to the compounds plate and then shaken for 20 to 40 minutes. The plates were placed on the FLIPR and 15 μL of the compound was added to each well, then calcium flux signal was measured.
For `CSCC[C@H](NC(=O)[C@H](CO)NC(=O)[C@H](Cc1ccc(O)cc1)NC(=O)[C@H](CO)NC(C)=O)C(=O)N[C@@H](CCC(=O)O)C(=O)N[C@@H](Cc1c[nH]cn1)C(=O)N[C@@H](Cc1ccccc1)C(=O)N[C@@H](CCCNC(=N)N)C(=O)N[C@@H](Cc1c[nH]c2ccccc12)C(=O)NCC(=O)N[C@@H](CCCCN)C(=O)N1CCC[C@H]1C(N)=O` [KR-005], the IC50 is 67.1 nM.

The IC50 is the point on the concentration scale where inhibition reaches its midpoint.
